The target of the test is T1, human IGF-IR (Homo sapiens, UniProt P08069).
T1 construct: complete human IGF-IR cDNA: GenBank Acc; No. NM_000875; expressed in transfected cells; host or cells: NIH-3T3 mouse fibroblasts
T1 sequence (P08069 31-1367): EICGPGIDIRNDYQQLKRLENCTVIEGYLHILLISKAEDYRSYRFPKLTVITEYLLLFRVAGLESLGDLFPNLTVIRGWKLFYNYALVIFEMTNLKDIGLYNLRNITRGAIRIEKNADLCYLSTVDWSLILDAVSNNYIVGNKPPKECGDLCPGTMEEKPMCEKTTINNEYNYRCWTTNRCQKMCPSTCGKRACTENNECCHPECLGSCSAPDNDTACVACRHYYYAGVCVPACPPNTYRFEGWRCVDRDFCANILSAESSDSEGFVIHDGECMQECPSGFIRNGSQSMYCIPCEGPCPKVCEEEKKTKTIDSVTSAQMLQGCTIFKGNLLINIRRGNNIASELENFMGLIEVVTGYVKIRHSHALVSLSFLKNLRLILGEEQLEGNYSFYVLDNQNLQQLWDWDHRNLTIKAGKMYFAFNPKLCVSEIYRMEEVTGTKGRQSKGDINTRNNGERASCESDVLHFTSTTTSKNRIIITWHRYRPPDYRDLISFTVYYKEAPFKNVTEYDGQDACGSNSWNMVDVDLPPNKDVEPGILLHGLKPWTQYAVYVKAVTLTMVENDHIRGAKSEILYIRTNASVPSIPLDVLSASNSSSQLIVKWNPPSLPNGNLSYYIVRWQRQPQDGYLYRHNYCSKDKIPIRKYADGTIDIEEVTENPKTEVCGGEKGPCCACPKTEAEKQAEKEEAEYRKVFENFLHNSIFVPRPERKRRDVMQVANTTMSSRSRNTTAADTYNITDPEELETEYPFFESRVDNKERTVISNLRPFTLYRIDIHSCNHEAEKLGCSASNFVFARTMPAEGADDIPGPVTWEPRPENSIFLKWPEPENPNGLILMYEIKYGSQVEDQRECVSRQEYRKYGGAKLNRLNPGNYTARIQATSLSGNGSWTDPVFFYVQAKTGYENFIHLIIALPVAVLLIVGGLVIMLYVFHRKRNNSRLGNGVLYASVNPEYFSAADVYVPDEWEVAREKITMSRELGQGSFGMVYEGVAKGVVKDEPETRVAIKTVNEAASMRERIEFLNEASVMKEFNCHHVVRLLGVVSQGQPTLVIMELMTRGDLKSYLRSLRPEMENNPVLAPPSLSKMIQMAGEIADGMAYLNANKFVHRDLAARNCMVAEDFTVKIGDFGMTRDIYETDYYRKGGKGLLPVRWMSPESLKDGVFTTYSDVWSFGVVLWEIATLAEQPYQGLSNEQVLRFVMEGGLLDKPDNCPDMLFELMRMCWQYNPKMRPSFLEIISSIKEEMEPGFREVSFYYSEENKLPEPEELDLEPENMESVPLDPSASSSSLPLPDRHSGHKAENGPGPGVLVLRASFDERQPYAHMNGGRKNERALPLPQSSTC
Briefly: cellular "Capture ELISA": IGF-I induced IGF-IR autophosphorylation. Type of test: cell-based. To be noted: NIH-3T3 mouse fibroblasts transfected with human IGF-IR cDNA, 90 min compound, 10 ng/ml IGF-I for 10 min. On the procedure:
In this assay the activity of the compounds of the invention against Insulin-like growth factor I (IGF-I) induced autophosphorylation of the IGF-IGF-IR is determined. The assay is conducted as follows:
The cells which overexpress human IGF-IGF-IR are cultured in Dulbecco's minimal essential (DMEM) medium, containing 10% Fetal Calf Serum (FCS). […] On day 3 the medium is discarded and the cells are incubated for 24 h in minimal medium (DMEM, containing 0.5% FCS). […] The cells are incubated for 90 min in the presence of a compound of formula I. Thereafter the cells are stimulated with 50 μl IGF-I (final concentration of IGF-I in the well=10 ng/ml; IGF-I is obtained from Sigma; Product Code: I3769) and incubated for 10 min at 37° C.
The medium is discarded and the cells are washed twice with PBS/O (=Phosphate-Buffered Saline without CaCl2) and lysed for 15 min on ice with 50 μl/well RIPA-buffer [50 mM Tris.HCl, pH=7.2, 120 mM NaCl, 1 mM EDTA, 6 mM EGTA, 1% NP-40, 20 mM NaF, 1 mM benzamidine, 15 mM sodium pyrophosphate, 1 mM Phenyl methyl sulphonyl fluoride (PMSF) and 0.5 mM Na3VO4] and shaken for 10 min using a 96-well plate shaker (=cellular extracts).
The plates are washed twice with 0.05% (v/v) Tween-20 in Phosphate-Buffered Saline (PBS) and once with nanopure H2O. […] After blocking, the plates are washed once with nanopure H2O.
After incubating the extracts and the secondary antibody for 2 h at 4° C., the extracts are discarded, the plates are washed twice with 0.05% (v/v) Tween-20 in PBS and once with nanopure water.
90 μl/well AP substrate (CDP-Star; obtained from Tropix; Cat. No.: MS100RY) are then added and the plates are incubated for 45 min at RT in the dark, followed by measuring AP activity in a Packard Top Count Microplate Scintillation Counter. The IC50 values for the compounds of formula I are calculated via linear regression analysis using the GraphPad In-stat program (GraphPad Software, USA).
Test for activity against IGF-I induced IGF-IR autophosphorylation using the cellular “Capture ELISA” test
The cellular “Capture ELISA” test is carried out as described above.
On to `NC[C@H]1C[C@@H](n2cc(-c3cccc(OCc4ccccc4)c3)c3c(N)ncnc32)C1` [Example 1, cis-7-(3-aminomethyl-cyclobutyl)-5-(3-benzyloxy-phenyl)-7H-pyrrolo[2,3-d]pyrimidin-4-ylamine], for which the midpoint of inhibition, the IC50, lay at 62 nM. The figure for `NC[C@H]1C[C@H](n2cc(-c3cccc(OCc4ccccc4)c3)c3c(N)ncnc32)C1` [Example 2, trans-7-(3-aminomethyl-cyclobutyl)-5-(3-benzyloxy-phenyl)-7H-pyrrolo[2,3-d]pyrimidin-4-ylamine] is 30 nM. The figure for `CNC[C@H]1C[C@@H](n2cc(-c3cccc(OCc4ccccc4)c3)c3c(N)ncnc32)C1` [Example 9, cis-5-(3-Benzyloxy-phenyl)-7-(3-methylaminomethyl-cyclobutyl)-7H-pyrrolo[2,3-d]pyrimidin-4-ylamine] is 42 nM.

Compound `CNC[C@H]1C[C@H](n2cc(-c3cccc(OCc4ccccc4)c3)c3c(N)ncnc32)C1` [Example 10, trans-5-(3-Benzyloxy-phenyl)-7-(3-methylaminomethyl-cyclobutyl)-7H-pyrrolo[2,3-d]pyrimidin-4-ylamine] showed an IC50 of 70 nM.

`CS(=O)(=O)NC[C@H]1C[C@@H](n2cc(-c3cccc(OCc4ccccc4)c3)c3c(N)ncnc32)C1` [Example 14, cis-N-{3-[4-Amino-5-(3-benzyloxy-phenyl)-pyrrolo[2,3-d]pyrimidin-7-yl]-cyclobutylmethyl}-methanesulfonamide] came in with a concentration for half-maximal inhibition (IC50) of 30 nM. Compound `COC(=O)NC[C@H]1C[C@H](n2cc(-c3cccc(OCc4ccccc4)c3)c3c(N)ncnc32)C1` [Example 22, trans-{3-[4-amino-5-(3-benzyloxy-phenyl)-pyrrolo[2,3-d]pyrimidin-7-yl]-cyclobutylmethyl}-carbamic acid methyl ester] yielded a 50% inhibitory concentration (IC50) of 80 nM. In turn, `COC(=O)NC[C@H]1C[C@@H](n2cc(-c3cccc(OCc4ccccc4)c3)c3c(N)ncnc32)C1` [Example 23, cis-{3-[4-Amino-5-(3-benzyloxy-phenyl)-pyrrolo[2,3-d]pyrimidin-7-yl]-cyclobutylmethyl}-carbamic acid methyl ester] gave a concentration for half-maximal inhibition (IC50) of 31 nM.

In the case of `COCCOC(=O)NC[C@H]1C[C@H](n2cc(-c3cccc(OCc4ccccc4)c3)c3c(N)ncnc32)C1` [Example 24, trans-{3-[4-Amino-5-(3-benzyloxy-phenyl)-pyrrolo[2,3-d]pyrimidin-7-yl]-cyclobutylmethyl}-carbamic acid 2-methoxy-ethyl ester], the IC50 is 95 nM. As for `CCNC(=O)NC[C@H]1C[C@H](n2cc(-c3cccc(OCc4ccccc4)c3)c3c(N)ncnc32)C1` [Example 26, trans-1-{3-[4-amino-5-(3-benzyloxy-phenyl)-pyrrolo[2,3-d]pyrimidin-7-yl]-cyclobutylmethyl}-3-ethyl-urea], the IC50 amounted to 55 nM. This IC50 lies about 1.7-fold lower than the previous one.

`CCNC(=O)NC[C@H]1C[C@@H](n2cc(-c3cccc(OCc4ccccc4)c3)c3c(N)ncnc32)C1` [Example 27, cis-{3-[4-Amino-5-(3-benzyloxy-phenyl)pyrrolo[2,3-d]pyrimidin-7-yl]-cyclobutylmethyl}-3-ethyl-urea] registered an IC50 of 50 nM. Next, `CCCNC(=O)NC[C@H]1C[C@H](n2cc(-c3cccc(OCc4ccccc4)c3)c3c(N)ncnc32)C1` [Example 28, trans-1-{3-[4-Amino-5-(3-benzyloxy-phenyl)-pyrrolo[2,3-d]pyrimidin-7-yl]-cyclobutylmethyl}-3-propyl-urea]: 50 nM; `CC(C)NC(=O)NC[C@H]1C[C@@H](n2cc(-c3cccc(OCc4ccccc4)c3)c3c(N)ncnc32)C1` [Example 31, cis-1-{3-[4-Amino-5-(3-benzyloxy-phenyl)-pyrrolo[2,3-d]pyrimidin-7-yl]-cyclobutylmethyl}-3-isopropyl-urea]: 30 nM; `NC(=O)NC[C@H]1C[C@@H](n2cc(-c3cccc(OCc4ccccc4)c3)c3c(N)ncnc32)C1` [Example 49, cis-{3-[4-Amino-5-(3-benzyloxy-phenyl)-pyrrolo[2,3-d]pyrimidin-7-yl]-cyclobutylmethyl}-urea]: 40 nM. `Nc1ncnc2c1c(-c1cccc(OCc3ccccc3)c1)cn2[C@H]1C[C@@H](CNC(=O)CN2CCCCC2)C1` [Example 57, cis-N-{3-[4-Amino-5-(3-benzyloxy-phenyl)-pyrrolo[2,3-d]pyrimidin-7-yl]-cyclobutylmethyl}-2-piperidin-1-yl-acetamide] had an IC50 of 18 nM. Compared with the last compound, the IC50 is about 2.2-fold lower. The figure for `NC(=O)[C@@H]1CCCN1C[C@H]1C[C@H](n2cc(-c3cccc(OCc4ccccc4)c3)c3c(N)ncnc32)C1` [Example 75, trans-(S)1-{3-[4-Amino-5-(3-benzyloxy-phenyl)-pyrrolo[2,3-d]pyrimidin-7-yl]-cyclobutylmethyl}-pyrrolidine-2-carboxylic acid amide] is 50 nM. Regarding `Nc1ncnc2c1c(-c1cccc(OCc3ccccc3)c1)cn2[C@H]1C[C@@H](CN2CCC(O)CC2)C1` [Example 77, cis-1-{3-[4-Amino-5-(3-benzyloxy-phenyl)-pyrrolo[2,3-d]pyrimidin-7-yl]-cyclobutylmethyl}-piperidin-4-ol], the IC50 turned out to be 50 nM. Next, `Nc1ncnc2c1c(-c1cccc(OCc3ccccc3)c1)cn2[C@H]1C[C@@H](CN2CCSCC2)C1` [Example 81, cis-5-(3-Benzyloxy-phenyl)-7-(3-thiomorpholin-4-ylmethyl-cyclobutyl)-7H-pyrrolo[2,3-d]pyrimidin-4-ylamine]: 80 nM.

In the case of `NC(=O)[C@H]1CCCN1C[C@H]1C[C@@H](n2cc(-c3cccc(OCc4ccccc4)c3)c3c(N)ncnc32)C1` [Example 83, cis-(R)-1-{3-[4-Amino-5-(3-benzyloxy-phenyl)-pyrrolo[2,3-d]pyrimidin-7-yl]-cyclobutylmethyl}-pyrrolidine-2-carboxylic acid amide], inhibition was half-maximal at 52 nM (IC50). `CNC(=O)NC[C@H]1C[C@@H](n2cc(-c3cccc(OCc4ccccc4)c3)c3c(N)ncnc32)C1` [Example 88, cis-1-{3-[4-Amino-5-(3-benzyloxy-phenyl)-pyrrolo[2,3-d]pyrimidin-7-yl]-cyclobutylmethyl}-3-methyl-urea] displayed a concentration for half-maximal inhibition (IC50) of 57 nM. For the compound `Nc1ncnc2c1c(-c1cccc(OCc3ccccc3)c1)cn2[C@H]1C[C@H](CNC(=O)N2CCCCC2)C1` [Example 90, trans-Piperidine-1-carboxylic acid {3-[4-amino-5-(3-benzyloxy-phenyl)-pyrrolo[2,3-d]pyrimidin-7-yl]-cyclobutylmethyl}-amide], it took 90 nM to reach half-maximal inhibition (IC50).

Consider `CCN(CC)CCOC(=O)NC[C@H]1C[C@H](n2cc(-c3cccc(OCc4ccccc4)c3)c3c(N)ncnc32)C1` [Example 95, trans-{3-[4-amino-5-(3-benzyloxy-phenyl)pyrrolo[2,3-d]pyrimidin-7-yl]-cyclobutylmethyl}-carbamic acid 2-diethylamino-ethyl ester], for which half-maximal inhibition (IC50) required 80 nM. As for `Nc1ncnc2c1c(-c1cccc(OCc3ccccc3)c1)cn2[C@H]1C[C@H](CNC(=O)OCCN2CCOCC2)C1` [Example 96, trans-{3-[4-Amino-5-(3-benzyloxy-phenyl)-pyrrolo[2,3-d]pyrimidin-7-yl]-cyclobutylmethyl}-carbamic acid 2-morpholin-4-yl-ethyl ester], the IC50 was 50 nM.

The values above are taken from patent publication US7326699B2, “4-Amino-5-phenyl-7-cyclobutyl-pyrrolo(2,3-d)pyrimidine derivatives” (Novartis AG, priority 2001, dated 2008).
